Measurements reported in paper PMC10382584, “Macrocyclization of linear molecules by deep learning to facilitate macrocyclic drug candidates discovery” (Nature Communications, 2023).

Columns and labels:
Test in all cases: biochemical
Parameters in all cases: DiscoveRx KINOMEscan competition binding, percent of DMSO control signal at 100 nM
Settings in all cases: read-out: Fig. 4a / Percent Control / Compound 1; percent of DMSO control, competition binding
ACVR1 = ACVR1 (Homo sapiens, UniProt Q04771)
Procedure: (§1) The kinase selectivity profile was performed by using the DiscoveRx KINOMEscan platform. […] Test compounds were prepared as 40× stocks in 100% DMSO and directly diluted into the assay. The results were defined as a percentage of signal between the negative (DMSO, 100% control) and the positive (control compound, 0% control) control, which was calculated as follows: percent control = [(test compound signal − positive control signal)/(negative control signal − positive control signal)] × 100.

AKT2 = AKT2 (Homo sapiens, UniProt P31751)
Procedure: as §1

AURKC = AURKC (Homo sapiens, UniProt Q9UQB9)
Procedure: as §1

CAMK1B = biological target: T1, CAMK1B (Homo sapiens, UniProt Q6P2M8)
T1 construct: gene PNCK
T1 sequence (Q6P2M8 whole entry): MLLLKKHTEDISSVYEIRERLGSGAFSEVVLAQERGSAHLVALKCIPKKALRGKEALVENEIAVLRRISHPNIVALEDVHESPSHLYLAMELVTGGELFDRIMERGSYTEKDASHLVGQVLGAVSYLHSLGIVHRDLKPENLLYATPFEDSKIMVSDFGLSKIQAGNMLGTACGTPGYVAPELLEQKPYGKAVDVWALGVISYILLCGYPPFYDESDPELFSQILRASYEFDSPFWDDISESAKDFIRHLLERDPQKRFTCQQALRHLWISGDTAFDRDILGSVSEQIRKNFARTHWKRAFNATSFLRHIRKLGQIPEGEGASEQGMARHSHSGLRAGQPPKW
Procedure: as §1

CDC2L2 = biological target: T2, CDC2L2 (Homo sapiens, UniProt Q9UQ88)
T2 construct: gene CDK11A
Procedure: as §1

CDKL2 = CDKL2 (Homo sapiens, UniProt Q92772)
Procedure: as §1

CDKL5 = CDKL5 (Homo sapiens, UniProt O76039)
Procedure: as §1

CLK4 = CLK4 (Homo sapiens, UniProt Q9HAZ1)
Procedure: as §1

DAPK1 = DAPK1 (Homo sapiens, UniProt P53355)
Procedure: as §1

DCAMKL1 = biological target: T3, DCAMKL1 (Homo sapiens, UniProt O15075)
T3 construct: gene DCLK1
T3 sequence (O15075 whole entry): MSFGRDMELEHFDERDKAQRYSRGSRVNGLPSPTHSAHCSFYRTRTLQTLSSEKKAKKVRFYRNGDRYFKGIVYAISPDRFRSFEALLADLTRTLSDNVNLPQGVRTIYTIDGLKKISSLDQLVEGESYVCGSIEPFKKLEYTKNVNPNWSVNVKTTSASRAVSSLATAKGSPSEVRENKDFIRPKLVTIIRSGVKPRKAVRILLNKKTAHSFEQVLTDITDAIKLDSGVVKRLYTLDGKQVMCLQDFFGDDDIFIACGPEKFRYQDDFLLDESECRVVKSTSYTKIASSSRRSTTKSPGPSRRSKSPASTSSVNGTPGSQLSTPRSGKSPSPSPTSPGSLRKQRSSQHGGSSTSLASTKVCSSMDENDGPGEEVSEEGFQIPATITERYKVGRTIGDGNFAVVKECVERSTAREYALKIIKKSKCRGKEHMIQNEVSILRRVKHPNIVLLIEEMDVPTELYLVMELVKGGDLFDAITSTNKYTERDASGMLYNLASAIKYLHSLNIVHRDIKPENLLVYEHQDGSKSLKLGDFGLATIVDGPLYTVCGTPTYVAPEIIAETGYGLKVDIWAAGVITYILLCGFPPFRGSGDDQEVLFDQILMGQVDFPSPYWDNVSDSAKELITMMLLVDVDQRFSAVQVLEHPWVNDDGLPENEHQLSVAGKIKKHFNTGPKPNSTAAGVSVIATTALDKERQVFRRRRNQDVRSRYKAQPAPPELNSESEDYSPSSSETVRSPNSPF
Procedure: as §1

EGFR = EGFR (Homo sapiens, UniProt P00533)
Procedure: as §1

ERK8 = biological target: T4, ERK8 (Homo sapiens, UniProt Q8TD08)
T4 construct: gene MAPK15
T4 sequence (Q8TD08 whole entry): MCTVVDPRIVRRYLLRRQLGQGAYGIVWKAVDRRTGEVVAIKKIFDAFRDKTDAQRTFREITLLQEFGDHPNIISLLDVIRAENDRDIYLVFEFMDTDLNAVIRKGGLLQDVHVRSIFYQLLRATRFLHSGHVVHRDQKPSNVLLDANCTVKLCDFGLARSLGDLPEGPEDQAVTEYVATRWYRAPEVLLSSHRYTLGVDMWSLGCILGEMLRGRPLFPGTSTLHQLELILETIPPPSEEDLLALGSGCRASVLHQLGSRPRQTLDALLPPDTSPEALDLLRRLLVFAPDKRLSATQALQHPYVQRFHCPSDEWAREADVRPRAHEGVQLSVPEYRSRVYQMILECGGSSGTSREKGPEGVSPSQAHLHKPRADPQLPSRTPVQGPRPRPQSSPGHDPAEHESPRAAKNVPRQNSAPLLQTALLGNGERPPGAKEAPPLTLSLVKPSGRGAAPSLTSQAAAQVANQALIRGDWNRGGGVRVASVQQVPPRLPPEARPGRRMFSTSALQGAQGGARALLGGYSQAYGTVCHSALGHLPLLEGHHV
Procedure: as §1

FGFR3 = FGFR3 (Homo sapiens, UniProt P22607)
FGFR3, sequence (P22607 whole entry): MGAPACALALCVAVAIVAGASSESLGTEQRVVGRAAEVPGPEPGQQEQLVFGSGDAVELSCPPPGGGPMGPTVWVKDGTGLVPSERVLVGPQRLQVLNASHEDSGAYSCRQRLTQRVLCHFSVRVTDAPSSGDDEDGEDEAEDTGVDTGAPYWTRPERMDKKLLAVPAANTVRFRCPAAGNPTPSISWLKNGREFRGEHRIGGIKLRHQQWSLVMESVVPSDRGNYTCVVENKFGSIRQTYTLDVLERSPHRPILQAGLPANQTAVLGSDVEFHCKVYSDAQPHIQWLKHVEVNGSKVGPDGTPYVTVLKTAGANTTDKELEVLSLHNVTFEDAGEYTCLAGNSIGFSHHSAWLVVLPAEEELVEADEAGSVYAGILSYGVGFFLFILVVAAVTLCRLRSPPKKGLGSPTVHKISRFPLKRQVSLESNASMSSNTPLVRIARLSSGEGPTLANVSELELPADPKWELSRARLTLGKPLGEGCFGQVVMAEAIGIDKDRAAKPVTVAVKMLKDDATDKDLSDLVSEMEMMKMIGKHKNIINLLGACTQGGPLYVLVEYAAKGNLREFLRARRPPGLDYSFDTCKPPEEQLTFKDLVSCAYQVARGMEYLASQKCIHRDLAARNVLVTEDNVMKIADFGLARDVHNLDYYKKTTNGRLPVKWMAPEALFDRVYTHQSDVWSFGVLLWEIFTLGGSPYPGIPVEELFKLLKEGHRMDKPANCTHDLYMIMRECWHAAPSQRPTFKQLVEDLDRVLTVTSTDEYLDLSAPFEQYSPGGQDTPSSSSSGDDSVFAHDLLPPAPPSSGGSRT
Procedure: as §1

HIPK2 = HIPK2 (Homo sapiens, UniProt Q9H2X6)
Procedure: as §1

[1] = biological target: T5, JAK2(JH1domain-catalytic) (Homo sapiens, UniProt O60674)
T5 construct: JH1domain-catalytic
T5 sequence (O60674 whole entry): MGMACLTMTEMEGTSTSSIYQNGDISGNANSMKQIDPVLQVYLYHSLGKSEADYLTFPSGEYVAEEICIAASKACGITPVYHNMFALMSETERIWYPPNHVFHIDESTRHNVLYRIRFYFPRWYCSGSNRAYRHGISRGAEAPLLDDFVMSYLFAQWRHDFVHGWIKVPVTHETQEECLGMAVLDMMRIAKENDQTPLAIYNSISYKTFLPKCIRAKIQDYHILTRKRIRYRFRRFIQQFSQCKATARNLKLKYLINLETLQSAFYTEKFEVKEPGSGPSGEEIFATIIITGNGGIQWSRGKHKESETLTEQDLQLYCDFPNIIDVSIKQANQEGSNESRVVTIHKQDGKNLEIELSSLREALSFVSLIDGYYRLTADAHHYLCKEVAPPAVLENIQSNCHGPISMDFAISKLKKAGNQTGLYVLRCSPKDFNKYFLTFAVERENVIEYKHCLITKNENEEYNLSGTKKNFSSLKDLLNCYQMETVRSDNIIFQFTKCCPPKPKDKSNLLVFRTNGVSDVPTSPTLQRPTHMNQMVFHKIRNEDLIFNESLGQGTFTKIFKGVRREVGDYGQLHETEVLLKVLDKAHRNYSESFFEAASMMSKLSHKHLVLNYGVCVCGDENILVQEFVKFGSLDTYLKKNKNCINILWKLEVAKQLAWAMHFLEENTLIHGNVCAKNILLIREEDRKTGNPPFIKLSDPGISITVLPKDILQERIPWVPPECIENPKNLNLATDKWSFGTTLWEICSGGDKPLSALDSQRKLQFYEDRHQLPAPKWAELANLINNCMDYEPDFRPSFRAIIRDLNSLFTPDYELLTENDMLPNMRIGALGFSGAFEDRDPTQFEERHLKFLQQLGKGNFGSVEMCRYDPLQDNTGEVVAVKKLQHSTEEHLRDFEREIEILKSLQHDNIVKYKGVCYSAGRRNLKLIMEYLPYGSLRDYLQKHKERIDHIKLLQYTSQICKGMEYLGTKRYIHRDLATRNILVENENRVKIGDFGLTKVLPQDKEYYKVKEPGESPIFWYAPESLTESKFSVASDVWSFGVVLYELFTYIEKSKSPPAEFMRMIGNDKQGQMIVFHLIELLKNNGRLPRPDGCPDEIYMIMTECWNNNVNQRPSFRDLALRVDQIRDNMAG
Procedure: as §1

KIT(D816H) = KIT(D816H) (Homo sapiens, UniProt P10721, D816H)
Procedure: as §1

KIT(V559D) = KIT(V559D) (Homo sapiens, UniProt P10721, V559D)
Procedure: as §1

LATS1 = LATS1 (Homo sapiens, UniProt O95835)
Procedure: as §1

LIMK1 = LIMK1 (Homo sapiens, UniProt P53667)
Procedure: as §1

PIK3CA(H1047L) = PIK3CA(H1047L) (Homo sapiens, UniProt P42336, H1047L)
PIK3CA(H1047L), sequence (P42336 whole entry H1047L): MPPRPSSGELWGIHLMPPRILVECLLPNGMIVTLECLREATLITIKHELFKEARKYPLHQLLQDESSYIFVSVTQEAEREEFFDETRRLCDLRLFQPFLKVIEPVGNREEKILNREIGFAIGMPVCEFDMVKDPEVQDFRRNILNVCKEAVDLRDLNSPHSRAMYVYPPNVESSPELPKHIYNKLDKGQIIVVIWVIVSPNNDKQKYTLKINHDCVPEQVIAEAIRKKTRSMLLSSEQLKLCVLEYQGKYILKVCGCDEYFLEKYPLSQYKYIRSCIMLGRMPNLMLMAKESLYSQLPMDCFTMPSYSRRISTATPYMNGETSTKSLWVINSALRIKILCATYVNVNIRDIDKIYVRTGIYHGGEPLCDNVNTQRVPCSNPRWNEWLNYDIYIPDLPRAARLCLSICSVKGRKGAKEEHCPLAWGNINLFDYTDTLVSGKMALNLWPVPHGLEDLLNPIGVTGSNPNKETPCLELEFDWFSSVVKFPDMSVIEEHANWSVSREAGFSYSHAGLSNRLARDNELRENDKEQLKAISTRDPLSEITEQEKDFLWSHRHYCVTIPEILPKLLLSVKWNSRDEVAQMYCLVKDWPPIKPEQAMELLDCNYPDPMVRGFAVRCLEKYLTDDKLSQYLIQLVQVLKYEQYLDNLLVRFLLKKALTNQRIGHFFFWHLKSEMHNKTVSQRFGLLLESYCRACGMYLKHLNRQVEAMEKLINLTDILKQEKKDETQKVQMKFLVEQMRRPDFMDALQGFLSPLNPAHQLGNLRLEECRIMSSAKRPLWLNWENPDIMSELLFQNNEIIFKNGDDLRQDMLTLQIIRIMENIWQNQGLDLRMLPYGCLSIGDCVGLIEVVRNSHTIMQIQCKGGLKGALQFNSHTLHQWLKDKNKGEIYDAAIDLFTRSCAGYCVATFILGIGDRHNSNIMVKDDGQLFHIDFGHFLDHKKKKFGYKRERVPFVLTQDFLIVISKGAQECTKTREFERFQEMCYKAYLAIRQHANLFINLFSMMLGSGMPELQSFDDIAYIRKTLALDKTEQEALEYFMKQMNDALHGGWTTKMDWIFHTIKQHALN
Procedure: as §1

PIK3CA(Q546K) = PIK3CA(Q546K) (Homo sapiens, UniProt P42336, Q546K)
PIK3CA(Q546K), sequence (P42336 whole entry Q546K): as the sequence (P42336 whole entry H1047L) above, with Q546K, L1047H counted along it
Procedure: as §1

PKN2 = PKN2 (Homo sapiens, UniProt Q16513)
Procedure: as §1

WNK4 = WNK4 (Homo sapiens, UniProt Q96J92)
Procedure: as §1

YANK3 = biological target: T6, YANK3 (Homo sapiens, UniProt Q86UX6)
T6 construct: gene STK32C
Procedure: as §1

p38-alpha = biological target: T7, p38-alpha (Homo sapiens, UniProt Q16539)
T7 construct: gene MAPK14
T7 sequence (Q16539 whole entry): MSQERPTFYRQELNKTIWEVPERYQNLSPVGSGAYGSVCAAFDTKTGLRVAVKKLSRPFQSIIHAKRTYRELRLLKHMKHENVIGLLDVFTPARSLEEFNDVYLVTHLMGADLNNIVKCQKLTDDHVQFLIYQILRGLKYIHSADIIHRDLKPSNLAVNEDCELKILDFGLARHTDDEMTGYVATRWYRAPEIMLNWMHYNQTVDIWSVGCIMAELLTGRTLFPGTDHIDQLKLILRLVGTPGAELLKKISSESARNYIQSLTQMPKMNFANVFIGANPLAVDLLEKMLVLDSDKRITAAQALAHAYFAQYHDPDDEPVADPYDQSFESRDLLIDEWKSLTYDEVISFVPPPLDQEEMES
Procedure: as §1
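Note: KINOMEscan kinase panel binding assay, signal normalized between DMSO as 100% and a positive control compound as 0%.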

**Q.** Which results are given for Cc1cnc2nc1Nc1cccc(c1)COCc1cc(ccc1OCCN1CCCC1)N2 [Compound 1]?
**A.** remaining binding at 0.1 µM (ACVR1): 92%; remaining binding at 0.1 µM (AKT2): 89%; remaining binding at 0.1 µM (AURKC): 100%; remaining binding at 0.1 µM (CAMK1B): 92%; remaining binding at 0.1 µM (CDC2L2): 94%; remaining binding at 0.1 µM (CDKL2): 95%; remaining binding at 0.1 µM (CDKL5): 100%; remaining binding at 0.1 µM (CLK4): 94%; remaining binding at 0.1 µM (DAPK1): 94%; remaining binding at 0.1 µM (DCAMKL1): 90%; remaining binding at 0.1 µM (EGFR): 81%; remaining binding at 0.1 µM (ERK8): 99%; remaining binding at 0.1 µM (FGFR3): 95%; remaining binding at 0.1 µM (HIPK2): 100%; remaining binding at 0.1 µM [1]: 0%; remaining binding at 0.1 µM (KIT(D816H)): 60%; remaining binding at 0.1 µM (KIT(V559D)): 51%; remaining binding at 0.1 µM (LATS1): 100%; remaining binding at 0.1 µM (LIMK1): 88%; remaining binding at 0.1 µM (PIK3CA(H1047L)): 74%; remaining binding at 0.1 µM (PIK3CA(Q546K)): 70%; remaining binding at 0.1 µM (PKN2): 100%; remaining binding at 0.1 µM (WNK4): 48%; remaining binding at 0.1 µM (YANK3): 99%; remaining binding at 0.1 µM (p38-alpha): 100%
